Measurements: patent US10017504B2, “Piperidine isoxazole and isothiazole orexin receptor antagonists” (MERCK SHARP & DOHME CORP., priority 2014, dated 2018)
pIC50: −log10 of the molar value.

Target: human orexin-2 receptor (Homo sapiens (Human), UniProt O43614)
Assay: FLIPR Ca2+ Flux Assay, orexin-2 receptor
Format: cell-based
Details: CHO cells expressing the human orexin-2 receptor; agonist 70 pM Ala-6,12 human orexin-A; read-out: hOX2 FLIPR IC50
Experimental: In a typical experiment the OX1 and OX2 receptor antagonistic activity of the compounds of the present invention was determined in accordance with the following experimental method. For intracellular calcium measurements, Chinese hamster ovary (CHO) cells expressing the rat orexin-1 receptor or the human orexin-2 receptor, are grown in Iscove's modified DMEM containing 2 mM L-glutamine, […], 1% hypoxanthine-thymidine supplement, 100 U/ml penicillin, 100 μg/ml streptomycin and 10% heat-inactivated fetal calf serum (FCS). The cells are seeded at 20,000 cells/well into Becton-Dickinson black 384-well clear bottom sterile plates coated with poly-D-lysine. All reagents are from GIBCO-Invitrogen Corp. The seeded plates are incubated overnight at 37° C. and 5% CO2. Ala-6,12 human orexin-A as the agonist is prepared as a 1 mM stock solution in 1% bovine serum albumin (BSA) and diluted in assay buffer (HBSS containing 20 mM HEPES, 0.1% BSA and 2.5 mM probenecid, pH7.4) for use in the assay at a final concentration of 70 pM. Test compounds are prepared as 10 mM stock solution in DMSO, then diluted in 384-well plates, first in DMSO, then assay buffer. On the day of the assay, cells are washed 3 times with 100 μl assay buffer and then incubated for 60 min (37° C., 5% CO2) in 60 μl assay buffer containing 1 μM Fluo-4AM ester, 0.02% pluronic acid, and 1% BSA. The dye loading solution is then aspirated and cells are washed 3 times with 100 μl assay buffer. 30 μl of that same buffer is left in each well. Within the Fluorescent Imaging Plate Reader (FLIPR, Molecular Devices), test compounds are added to the plate in a volume of 25 μl, incubated for 5 min and finally 25 μl of agonist is added. Fluorescence is measured for each well at 1 second intervals for 5 minutes and the height of each fluorescence peak is compared to the height of the fluorescence peak induced by 70 pM Ala-6,12 orexin-A with buffer in place of antagonist. […] The intrinsic orexin receptor antagonist activity of a compound which may be used in the present invention may be determined by these assays.

Chain of human orexin-2 receptor (O43614 whole entry): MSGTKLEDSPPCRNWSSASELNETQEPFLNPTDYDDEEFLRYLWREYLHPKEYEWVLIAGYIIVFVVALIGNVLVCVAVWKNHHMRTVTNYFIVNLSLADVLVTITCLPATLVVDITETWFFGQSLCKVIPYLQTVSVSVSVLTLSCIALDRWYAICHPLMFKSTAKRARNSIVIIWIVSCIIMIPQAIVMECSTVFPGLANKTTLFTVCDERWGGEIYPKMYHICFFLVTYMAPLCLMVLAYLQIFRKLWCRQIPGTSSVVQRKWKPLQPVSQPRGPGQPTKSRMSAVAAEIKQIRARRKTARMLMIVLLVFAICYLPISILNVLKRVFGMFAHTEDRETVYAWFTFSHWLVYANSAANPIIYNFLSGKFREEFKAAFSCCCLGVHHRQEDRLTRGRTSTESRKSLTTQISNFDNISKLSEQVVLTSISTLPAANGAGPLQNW

C[C@@H]1CC[C@@H](c2cc(C(C)(C)O)no2)CN1C(=O)c1nccnc1-c1ccccn1 [Example 28, 2-(5-{(3R,6R)-6-Methyl-1-[(3-pyridin-2-ylpyrazin-2-yl)carbonyl]piperidin-3-yl}isoxazol-3-yl)propan-2-ol]
pIC50: 5.85

C[C@@H]1CC[C@@H](c2cc(C(C)(C)O)no2)CN1C(=O)c1nccnc1-n1cccn1 [Example 25, 2-{5-[(3R,6R)-6-methyl-1-{[3-(1H-pyrazol-1-yl)pyrazin-2-yl]carbonyl}piperidin-3-yl]isoxazol-3-yl}propan-2-ol]
pIC50: 6.10

C[C@@H]1CC[C@@H](c2cc(C(C)(C)O)no2)CN1C(=O)c1ccccc1C1CC1(F)F (stereo partly drawn) [Example 38, 2-{5-[(3R,6R)-1-{[2-(2,2-Difluorocyclopropyl)phenyl]carbonyl}-6-methylpiperidin-3-yl]isoxazol-3-yl}propan-2-ol]
pIC50: 7.28

CC[C@@H]1CC[C@@H](c2cc(C(C)(C)O)no2)CN1C(=O)c1ccccc1-n1nccn1 [Example 39, 2-{5-[(3R,6R)-6-Ethyl-1-{[2-(2H-1,2,3-triazol-2-yl)phenyl]carbonyl}piperidin-3-yl]isoxazol-3-yl}propan-2-ol]
pIC50: 7.37

C[C@@H]1CC[C@@H](c2cc(C(C)(C)O)no2)CN1C(=O)c1ccccc1C1(C#N)CC1 [Example 29, 1-[2-({(2R,5R)-5-[3-(1-Hydroxy-1-methylethyl)isoxazol-5-yl]-2-methylpiperidin-1-yl}carbonyl)phenyl]cyclopropanecarbonitrile]
pIC50: 8.06

C[C@@H]1CC[C@@H](c2cc(C(C)(C)O)on2)CN1C(=O)c1cccnc1OCC(F)(F)F [Example 7, ((2R,5R)-5-(5-(2-Hydroxypropan-2-yl)isoxazol-3-yl)-2-methylpiperidin-1-yl)(2-(2,2,2-trifluoroethoxy)pyridin-3-yl)methanone]
pIC50: 6.64

CC[C@](C)(O)c1cc([C@@H]2CC[C@@H](C)N(C(=O)c3ccccc3-n3nccn3)C2)no1 [Example 12, (2-(2H-1,2,3-triazol-2-yl)phenyl)((2R,5R)-5-(5-((S)-2-hydroxybutan-2-yl)isoxazol-3-yl)-2-methylpiperidin-1-yl)methanone]
pIC50: 7.82

CC(C)Oc1ncccc1C(=O)N1C[C@H](c2cc(C(C)(C)O)on2)CC[C@H]1C [Example 6, ((2R,5R)-5-(5-(2-Hydroxypropan-2-yl)isoxazol-3-yl)-2-methylpiperidin-1-yl)(2-isopropoxypyridin-3-yl)methanone]
pIC50: 5.74
